Series [1] concerns Lewis lung carcinoma (LLC). As to the kind of experiment: Lewis lung carcinoma (LLC) model, avasimibe therapy. It is filed as in vivo, mice. Conditions: avasimibe 15 mg/kg intraperitoneally every 3 days, Day 10 to Day 35; versus DMSO control. The method, then: The LLC cells were washed twice with PBS and filtered by a 40 μm strainer. After which, the LLC cells (2×10^6) were intravenously injected into WT or Acat1^CKO mice at the age of 8-10 weeks. To detect the tumour multiplicity in the lung, the mice were euthanized at Day 35 post tumour inoculation and tumour numbers in the lung were counted. In the avasimibe therapy, on Day 10 mice were randomly divided into two groups. From Day 10 to Day 35 post tumour inoculation, avasimibe was injected intraperitoneally to the mice at the dose of 15 mg/kg every 3 days.
(§1) To study ACAT1 inhibitors in cancer immunotherapies in mice, melanoma-bearing mice were treated with a potent ACAT-1 inhibitor, avasimibe (Ava), or DMSO control, and tumour size and survival were studied. A combined therapy (avasimibe and anti-PD-1) or monotherapies (avasimibe or anti-PD-1) were also studied and compared in treating melanoma. In a lung cancer model, Lewis lung carcinoma-bearing mice were treated with avasimibe or DMSO control, and tumour multiplicity and survival were studied. Cytokine productions of stimulated human (h) CD8^+ T cells pretreated with avasimibe, CP-113,818, or DMSO. CTL cytotoxicity after avasimibe treatment was measured by the LDH assay. OT-I CTLs were pretreated with avasimibe or vehicle for 6 h and then incubated with EL-4 cells pulsed with OVA257-264 peptide for 4 h.

The test system of a further series is OT-I CTLs. As to the kind of experiment: Cytotoxicity of OT-I CTLs against antigen-pulsed EL-4 cells (LDH assay). Format: cell-based, mouse. Conditions: for cytotoxicity of CD8+ T cells: OT-I CTLs pretreated with compound or vehicle. On the procedure:
To generate mature Cytotoxic T lymphocytes (CTLs), splenocytes isolated from Acat1^CKO-OT-I mice or WT OT-I mice were stimulated with OVA257-264 (N4) for 3 days in the presence of 10 ng/ml IL-2. Cells were centrifuged and cultured in fresh medium containing 10 ng/ml IL-2 for 2 more days, after which most of the cells in the culture were CTLs. To measure CD8^+ T-cell cytotoxicity, EL-4 cells were pulsed with 2 nM antigenic peptide (N4, A2, T4, G4, R4 or Catnb) for 30 minutes. After washing EL-4 cells and CTLs three times with PBS, we mixed CTLs and antigen-pulsed EL-4 cells (1×10^5) in the killing medium (phenol free-RPMI 1640, 2% FBS), at the ratio of 1:1, 1:2 and 1:5, respectively. After 4 hours, the cytotoxic efficiency was measured by quantifying the release of endogenous lactate dehydrogenase (LDH) from EL-4 cells using a CytoTox 96 Non-Radioactive Cytotoxicity kit (Promega).
(§2) CD8^+ T cells were pretreated with vehicle (dimethylsulfoxide, DMSO), CP-113,818 or K604. Then the cells were stimulated with 5 μg ml^−1 plate-bound anti-CD3/CD28, and cytokine and cytolytic granule production was studied. Cytotoxicity of OT-I CTLs pretreated with CP-113,818 or K604 or vehicle was also studied.
as §1

A further series concerns B16F10 cells. Nature of the series: Skin melanoma mouse model, avasimibe therapy. Format: in vivo. The settings on record: melanoma-bearing mice; avasimibe 15 mg/kg intraperitoneally every 2 days from Day 10; versus DMSO control. On the procedure: B16F10 cells were washed three times with PBS, filtered by a 40 μm strainer. […] From Day 10, tumour size was measured every 2 days, and animal survival rate was recorded every day. Tumour size was calculated as length×width. Mice with tumour size larger than 20 mm at the longest axis were euthanized for ethical consideration. To analyse effector function of tumour-infiltrating T cells, mice were euthanized on Day 16. In the avasimibe therapy, on Day 10 mice bearing tumour of similar size were randomly divided into two groups. From Day 10, avasimibe was injected intraperitoneally to the mice at the dose of 15 mg/kg every 2 days.
as §1, with “OT-I CTLs were pretreated with avasimibe or vehicle for 6 h and then incubated with EL-4 cells pulsed with OVA257-264 peptide for 4 h.” left out

Another series relates to human CD8+ T cells. As to the kind of experiment: Human CD8+ T-cell cytokine production. Format: cell-based. The settings on record: PBMCs pretreated 12 hours, stimulated with plate-bound α-CD3 and α-CD28 (5 μg/ml each) for 24 hours; versus DMSO. The method, then: Human peripheral blood mononuclear cells (PBMCs) from healthy donators were stimulated with 5 μg/ml PHA (Sigma) for 2 days and then rested for 1 day. Cells were pretreated with vehicle (DMSO), CP113, 818 or avasimibe for 12 hours and then stimulated with plate-bound α-CD3 (5 μg/ml) and α-CD28 (5 μg/ml) antibodies for 24 hours. Intracellular staining and flow cytometry were used to assess cytokines production of CD8^+ T cells. […] A combined therapy (avasimibe and anti-PD-1) or monotherapies (avasimibe or anti-PD-1) were also studied and compared in treating melanoma. In a lung cancer model, Lewis lung carcinoma-bearing mice were treated with avasimibe or DMSO control, and tumour multiplicity and survival were studied. […] CTL cytotoxicity after avasimibe treatment was measured by the LDH assay. OT-I CTLs were pretreated with avasimibe or vehicle for 6 h and then incubated with EL-4 cells pulsed with OVA257-264 peptide for 4 h.

For series [2] the following is noted: doses at least up to 750 mg four times daily (i.e., 3000 mg/day); cited from earlier work.
The next series relates to CD8+ T cells. As to the kind of experiment: Cytokine and cytolytic granule production of stimulated CD8+ T cells. Format: cell-based, mouse. The settings on record: pretreated cells stimulated with 5 μg ml−1 plate-bound anti-CD3/CD28; versus vehicle (DMSO). On the procedure: Peripheral T cells were isolated from mouse spleen and draining lymph nodes by a CD8^+ or CD4^+ T cell negative selection kit (Stem cell). To analyse the tumour-infiltrating T cells, tumours were first digested by collagenase IV (sigma), and tumour-infiltrating leukocytes were isolated by 40-70% percoll (GE) gradient centrifugation. To measure the effector function of CD8^+ T cells, the isolated cells were first stimulated with 1 μM ionomycin and 50 ng/ml PMA for 4 hours in the presence of 5 μg/ml BFA, and then stained with PERCP-α-CD8a. Next, cells were fixed with 4% PFA and stained with FITC-α-Granzyme B, APC-α-IFNγ and PE-α-TNFα. In general, to gate the cytokine or granule producing cells, T cells without stimulation or stained with isotype control antibody were used as negative controls. This gating strategy is applicable for most of the flow cytometric analyses. To detect the MDSCs (myeloid-derived suppressor cells) in the tumour, the percoll isolated leukocyte were stained with α-CD45, α-CD11b and α-Ly6G (Gr1), the CD45^+ population was gated, after which the MDSC population (CD11b^+ Gr1^+) in CD45^+ were gated.
as §2

In the case of `CC(C)c1cc(C(C)C)c(CC(=O)NS(=O)(=O)Oc2c(C(C)C)cccc2C(C)C)c(C(C)C)c1` [avasimibe, [2,6-di(propan-2-yl)phenyl] N-[2-[2,4,6-tri(propan-2-yl)phenyl]acetyl]sulfamate], the “antitumor effect in Lewis lung carcinoma (tumour multiplicity and survival)” value in series [1] is reported as “good antitumor effect”. Further, in the series on OT-I CTLs (OT-I CTLs pretreated for 6 h, then incubated with OVA257-264 pulsed EL-4 cells for 4 h), the “effector function of mouse CD8+ T cells ex vivo (CTL cytotoxicity, LDH assay)” value is on record as “enhance”. Also, in the series on B16F10 cells, the survival time entry is given as “prolonged” and the tumour growth result is on record as “inhibited”. The “cytokine production of human CD8+ T cells” value in the series with human CD8+ T cells is “enhanced”. Also, the “tolerability in adult human subjects” value in series [2] is listed as “well tolerated”.

Take `CSc1cc(C)nc(SC)c1NC(=O)CN1CCN(CCSc2nc3ccccc3[nH]2)CC1` [K604, 2-[4-[2-(benzimidazol-2-ylthio)ethyl]piperazin-1yl]-N-[2,4-bis(methylthio)-6-methyl-3-pyridyl]acetamide]: the “cytotoxicity of CD8+ T cells” value with OT-I CTLs is reported as “augmented”. Moreover, the “cytolytic granule and cytokine productions of CD8+ T cells” value in the series on CD8+ T cells is recorded as “augmented”.

Take `CCCCCCCC[C@H](SCCCCCC)C(=O)Nc1c(SC)cc(C)nc1SC` [CP-113,818, (S)-N-(2,4-Bis(methylthio)-6-methylpyridin-3-yl)-2-(hexylthio)decanoic acid amide]: the “cytotoxicity of CD8+ T cells” value in the series with OT-I CTLs is on record as “augmented”. For the same compound, the “cytolytic granule and cytokine productions of CD8+ T cells” value in the series with CD8+ T cells is recorded as “augmented”.

As for `CC[C@H](C)C(=O)O[C@H]1C[C@@H](C)C=C2C=C[C@H](C)[C@H](CC[C@@H]3C[C@@H](O)CC(=O)O3)[C@H]21` [Lovastatin], the “cytolytic granule and cytokine productions of CD8+ T cells” value with CD8+ T cells is “significantly decreased”.

As for `CCN(CC)CCO[C@H]1CC[C@@]2(C)C(=CC[C@@H]3[C@@H]2CC[C@]2(C)C(=O)CC[C@@H]32)C1` [U18666A], the “cytolytic granule and cytokine productions of CD8+ T cells” value in the series on CD8+ T cells is reported as “significantly decreased”.

(Values after patent publication US11911469B2, “Combination of ACAT1 inhibitor and checkpoint antibody for treating cancer” (Shanghai Institutes for Biological Sciences, Chinese …, priority 2016, dated 2024).)
